Assay [1] concerns L. monocytogenes 149. Nature of the assay: CLSM analysis, biofilm prevention. The class given is cell-based, Listeria monocytogenes. Conditions: for proportion of membrane-compromised cells: 24 h; for Thickness (µm) MICBM80 / Thickness (µm) subCBM80: 24 h exposure; for Thickness (µm) MICBM80: substance at its MICBM80, mean ± SD; for Thickness (µm) subCBM80: substance at subinhibitory concentration, mean ± SD. The protocol:
(§1) Biofilm prevention and removal analyses were performed using previously determined minimum inhibitory and subinhibitory concentrations for metabolic activity (MICBM80, subCBM80; MICMPB80, subCMPB80) of NAC, RLs, and UA specific for each tested strain. Selected concentrations were used to evaluate the inhibition of biofilm formation (biofilm prevention) and the reduction in previously formed biofilms (biofilm removal) for the same set of microorganisms, with the exception of S. Infantis, which was excluded from the analysis due to its inability to form biofilm in the selected microtiter plate. Biofilm prevention and removal were observed using CLSM with specific staining to distinguish between live and membrane-compromised cells. Images were analyzed to evaluate (i). the total volume of the biomass, (ii). ratios of live and membrane-compromised cells, and (iii). to calculate biofilm volume reduction for individual organisms after the respective treatment types. The total biofilm volume was normalized by the area of the well and expressed as an average biofilm thickness. Complete data are provided in Supplementary Materials (Tables S1–S8).
(§2) For both inhibition and reduction of biofilms, overnight cultures from BHI were diluted in TSB + 1% Glc to reach an absorbance of 0.08 to 0.1 at 625 nm. The inoculum (150 µL) was transferred into wells of the 96-well flat-bottomed Ibidiμ-Plate (Ibidi, Gräfelfing, Germany) and mixed with 150 µL of each of the three tested substances in technical quadruplicates, followed by incubation at 37 °C for 24 h. Simultaneously, the prepared bacterial suspensions were inoculated to an additional microtiter plate (200 µL) and allowed to form biofilm overnight (18 h at 37 °C). After the incubation, the content of the well was drained off, and 200 µL of each of the three tested substances was added to the plate, which was then incubated for an additional 20 h. The used concentrations of the substances represented the subinhibitory and minimum inhibitory concentrations for metabolic activity (subCBM80, MICBM80; subCMPB80, MICMPB80). Both setups contained a positive control of the bacterial growth (inoculum mixed with sterile TSB + 1% Glc medium) and a control monitoring microbial contamination (sterile medium). Non-treated wells were used as a positive control for comparison between non-treated and treated biofilm mass.
(§3) Prior to the imaging, the wells were stained with the LIVE/DEAD® BacLight™ Bacterial Viability Kit (Thermo Fisher Scientific, MA, USA) following the manufacturer’s guidelines and Drago et al.. Briefly, equal volumes of SYTO® 9 and propidium iodide were combined with the sterile distilled water to reach a final concentration of […]. The biofilm mass was stained using 300 µL of the staining solution per well followed by incubation at 37 °C in the dark for 15 min. Stained wells were washed once with sterile distilled water, which was then added to each well (300 µL). Images were acquired with an inverted Leica SP5 CLSM using a 1.25× dry objective (WD 3.7 mm, Z-resolution 27 µm, up to 24 Z-stacks per well) to visualize an entire well. Samples were kept at the cultivation conditions (37 °C, 5% CO2, 90% humidity) with an OkoLabs stage top environmental chamber (Oko Labs, PA, USA). Fluorophore excitation lasers and emission bandwidths were as follows: SYTO® 9 (ex/em 485/498 nm) 488 nm excitation, 495 to 550 nm emission collection; propidium iodide (ex/em 535/617 nm) 561 nm excitation, 595 to 650 nm emission collection. The laser beam scanned the visual field at a frequency of 600 Hz. The wells were captured in snapshots of 1024 × 1024 pixels representing the area of 153.76 mm^2.
(§4) All collected images were statistically evaluated to quantify biovolume utilizing the surface estimation procedure described in Parker et al.. […]

In assay [2] the test system is L. monocytogenes 164. Put plainly: CLSM analysis, biofilm prevention. Conditions: for Thickness (µm) MICBM80 / Thickness (µm) subCBM80: 24 h exposure; for Thickness (µm) MICBM80: substance at its MICBM80, mean ± SD; for Thickness (µm) subCBM80: substance at subinhibitory concentration, mean ± SD. The class given is cell-based, Listeria monocytogenes. The protocol:
as §1, §2, §3, §4

The test system of a further assay is E. coli 683/17. Nature of the assay: CLSM analysis, biofilm prevention. The class given is cell-based, Escherichia coli. Conditions: 24 h exposure; for Thickness (µm) subCBM80: substance at subinhibitory concentration, mean ± SD. Here is the method:
as §1, §2, §3, §4

The next assay relates to E. coli 693/17. Put plainly: CLSM analysis, biofilm prevention. In kind it is cell-based, Escherichia coli. Conditions: 24 h exposure; for Thickness (µm) subCBM80: substance at subinhibitory concentration, mean ± SD. The protocol:
as §1, §2, §3, §4

Assay [3] concerns L. monocytogenes 149. Nature of the assay: CLSM analysis, biofilm removal (preformed biofilm). The class given is cell-based, Listeria monocytogenes. Particulars: 20 h exposure, mean ± SD; for Thickness (µm) MICBM80: substance at its MIC; for Thickness (µm) subCBM80: substance at subinhibitory concentration. Here is the method:
as §1
(§5) At first, bacterial suspensions were cultivated in microtiter plates to produce overnight biofilms (18 h). […] cells were then washed out, and the remaining biofilms were further cultivated for an additional 20 h with selected compounds. Following biofilm cultivation, biomass was observed using CLSM with live/membrane-compromised cell staining. Biomass images from biofilm removal treatments were similar to results from biofilm prevention, where biomass was highly diversified across the bacterial species and strains. Visually, biomass images were fairly consistent within the quadruplicates for each tested organism. Non-treated biofilms of S. aureus contained consistent biomass spread across the well (S. aureus 816) or grown around the edges (S. aureus 1241). […] PI staining identified membrane-compromised cells spread across S. aureus 816 biomass and incorporated in the edge of biomass and/or in the central part of the well (Figure 4B,C). […] Membrane-compromised cells appeared contained around the edges (S. aureus 1241), disturbed across the well (in both strains of L. monocytogenes), or in separated biomass in the central part of the well (in both strains of E. coli when treated with the subinhibitory concentration of RLs) (Figure 4D,E).
as §2
(§6) Prior to the imaging, the wells were stained with the LIVE/DEAD® BacLight™ Bacterial Viability Kit (Thermo Fisher Scientific, MA, USA) following the manufacturer’s guidelines and Drago et al.. […]

The test system of assay [4] is L. monocytogenes 164. Nature of the assay: CLSM analysis, biofilm removal (preformed biofilm). In kind it is cell-based, Listeria monocytogenes. Conditions: for Thickness (µm) MICBM80: substance at its MIC. The protocol:
as §1, §5, §2, §6

[5] abbreviates: preformed biofilm, 20 h exposure, mean ± SD.
Where [6] appears, read: substance at its MICBM80, mean ± SD.

With `CC(=O)c1c(O)c(C)c(O)c2c1OC1=CC(=O)C(C(C)=O)C(=O)C12C` (single isomer, unassigned; (+)) [UA, (+)-usnic acid], the “proportion of membrane-compromised cells” value in the assay with L. monocytogenes 149 [1] (MIC) is “up to 15%”. In addition, the “Thickness (µm) MICBM80” value with L. monocytogenes 149 [1] amounted to 175 ± 79.4 µm; in the assay with L. monocytogenes 164 [2], 325 ± 70.5 µm; with L. monocytogenes 149 [3] it was 317 ± 62.3 µm; with L. monocytogenes 164 [4] (setting [5]) it was 440 ± 60.8 µm. Further, the “Thickness (µm) subCBM80” value with L. monocytogenes 149 [1] turned out to be 268 ± 68.9 µm; in the assay on L. monocytogenes 164 [2], 417 ± 40.4 µm; in the assay with E. coli 683/17, 269 ± 28.1 µm; with E. coli 693/17 it was 256 ± 12.6 µm; with L. monocytogenes 149 [3] it was 276 ± 26.8 µm.

Take `CC(=O)N[C@@H](CS)C(=O)O` [NAC, N-Acetyl-L-cysteine]: the “proportion of membrane-compromised cells” value was “up to 25%” in the assay on L. monocytogenes 149 [1] (MIC and subinhibitory concentration); “up to 20%” in the assay on L. monocytogenes 164 [4] (20 h, MIC and subinhibitory concentration). Further, the “Thickness (µm) MICBM80” value with L. monocytogenes 149 [1] was determined as 86.5 ± 2.6 µm; in the assay with L. monocytogenes 164 [2], 158 ± 93.2 µm; with E. coli 683/17 (setting [6]), 271 ± 50.7 µm; in the assay on E. coli 693/17 (setting [6]), 273 ± 40.8 µm; in the assay with L. monocytogenes 149 [3] it was 338 ± 85.7 µm; with L. monocytogenes 164 [4] (setting [5]) it was 345 ± 62 µm. Also, the “Thickness (µm) subCBM80” value with L. monocytogenes 149 [1] was 238 ± 32 µm; in the assay with L. monocytogenes 164 [2], 288 ± 40.6 µm; in the assay with E. coli 683/17, 229 ± 9.9 µm; with E. coli 693/17 it was 181 ± 21.9 µm; in the assay with L. monocytogenes 149 [3], 332 ± 51.2 µm; in the assay on L. monocytogenes 164 [4] (preformed biofilm, 20 h exposure, substance at subinhibitory concentration, mean ± SD), 335 ± 23.1 µm. Further, the “proportion of membrane-compromised cells, increase” value with L. monocytogenes 164 [2] (24 h, MIC) was “about 45%”.

The record behind these values is paper PMC8583417, “Evaluation of the Antimicrobial Efficacy of N-Acetyl-L-Cysteine, Rhamnolipids, and Usnic Acid—Novel Approaches to Fight Food-Borne Pathogens” (International Journal of Molecular Sciences, 2021).
